Test system: HUVECs
Test: 2D angiogenesis assay, HUVECs on the hydrogel surface
Assay type: cell-based, human
Procedure: Angiogenesis and vascularization assays were adopted to optimize hydrogels with RGD. For the two-dimensional (2D) culture of HUVECs, cells (4×10^4/well in a 96-well plate) were plated on the surface of HA hydrogels (40 μL; HA-SH: 4 mg/mL and PEGDA: 5 mg/mL) with various concentrations of RGD (0, 0.01, 0.1, and 1 mM). Matrigel was used as a positive control. After 24 h, HUVECs were imaged after LIVE/DEAD staining. As for the 3D cell culture, to avoid cell precipitation onto the surface of the plate, the plate was first coated with the hydrogels (40 μL hydrogel; HA-SH: 4 mg/mL, PEGDA: 2 mg/mL, F127-SS-DA: 4 mg/mL; RGD: 0, 0.10, 0.25, and 0.50 mM). Then, HUVECs and hASCs mixed with hydrogel precursor solutions (0.75×10^6/mL hydrogel; 40 μL hydrogel) were plated on top of hydrogels. In addition, both cells were cultured inside hydrogels with F127-SS-DA or F127-DA (40 μL; HA-SH: 4 mg/mL, PEGDA: 2 mg/mL, RGD: 0.1 mM; F127-DA or F127-SS-DA: 2, 4, 8, 10, 20, and 50 mg/mL). The cells were imaged after immunostaining for F-actin. […]
Cell viability was examined with a LIVE/DEAD staining kit and then the images were captured by a Zeiss LSM 880 laser scanning confocal microscope. The cell morphology was also evaluated by immunostaining with Alexa Fluor Phalloidin 568 or 488 for F-actin and 4′,6-diamidino-2-phenylindole dihydrochloride (DAPI, Molecular Probes) for cell nuclei.

RGD
endothelial cell layer on the hydrogel surface (RGD at 1 mM): supported the formation of a full layer of endothelial cells
endothelial cell adhesion (RGD conjugated to a hyaluronic acid-based hydrogel, FIG. 18): improved endothelial cell adhesion in a dose-dependent manner
